Results on 2 compounds are retold here after patent US4690822A, “Novel drug carrier and pharmaceutical preparation comprising the same” (Fujisawa Pharmaceutical Co., Ltd., priority 1985, dated 1987).

Data set [1] can be described thus: Solubility of FK 235 in water. The data set is classed as physicochemical.
For data set [2] the following is noted: fasting state; S.E. 0.7 min.; cited from earlier work.

`COC(=O)C1=C(C#N)NC(C)=C(C(=O)OC(C)C)C1c1cccc([N+](=O)[O-])c1` (centres unmarked) [FK 235, Isopropyl 6-cyano-5-methoxycarbonyl-2-methyl-4-(3-nitrophenyl)-1,4-dihydropyridine-3-carboxylate] returned a solubility in data set [1] of less than 2 µg/mL.
Regarding `O` [water], the “half-time of the passage of fluid through pylorus” value in data set [2] is 13.1 min.
